Experiments:
[1] = tested on: HIV-2 LTR; assay: HIV-2 enhancer CAT reporter assay in transfected U937 cells; format: cell-based, Human
Protocol: Cell Culture. Human U937 monocytic cells were maintained in RPMI 1640 medium containing 10% fetal bovine serum (GibcoBRL), penicillin (50 units/ml), streptomycin (50 μg/ml), and L-glutamine (2 mM).
Phosphatase Inhibition. […]
Transfections. 5 μg of CAT reporter construct, pCMV5 PP2Ac, and the empty pCMV5 vector were combined to yield 25 μg total DNA. U937 undergoing logarithmic growth were harvested at 5×10^5 cells/ml and resuspended at 25×10^6 cells/ml in RPMI 1640 media. 10^7 cells (0.4 ml) were aliquoted to 0.4 cm electroporation cuvettes (Invitrogen) and incubated with the appropriate DNA mixture for 5 min at room temperature. The cells were then electroporated using Invitrogen's Electroporator II at a setting of 330 V, 1000 μF, and infinite resistance with an input voltage of approximately 325 V. Following electroporation, the cells from each cotransfection were evenly split ([…]) and placed in separate tissue culture plates in 5 ml of RPMI1640 media+10% FBS. After a period of 12-16 hrs, one group of cells was left untreated while the other received 32 nM TPA for 24 hrs. The cells were then harvested, washed with PBS, and lysed in 0.25 M Tris-HCl (pH 7.5). Protein levels of the lysates were determined by BioRad's colorimetric protein assay (BioRad).
Chloramphenicol Acetyl Transferase (CAT) Assay. For CAT assays, 5-30 μl of cell lysate was combined with 20 μl of 100 mM Tris-HCl (pH 7.5). The final volume was increased to 50 μl with lysis buffer, if necessary, and the mixture incubated for 15 min at 65° C. to inactivate endogenous acetyltransferases. The lysates were then transferred to 7 ml scintillation vials and 200 μl CAT reaction mixture (125 mM Tris-HCl, 1.25 mM chloramphenicol, 0.1 μCi ^3H-acetyl CoA) added. Five ml of Econofluor (Fisher Scientific) scintillation fluid was overlaid and the reaction incubated for 15-90 min before counting. Background and total counts were determined by mixing 200 μl CAT reaction mixture with 5 ml of Econfluor or Scintiverse (Fisher Scientific) respectively. CAT activity was background subtracted and normalized for total amount of protein used.
To test the possibility that PP2A is involved in the activation of the HIV-2 LTR and that PP2A may act on the HIV-2 LTR through the pets site, U937 cells were transfected with an HIV-2 enhancer CAT reporter alone or with pCMV5 PP2Ac, a plasmid encoding the catalytic domain of PP2A. After transfection, cells from each condition were split into an untreated control sample, to assess the baseline effects of PP2A, or a sample that received 32 nM 12-O-tetradecanoyl phorbol-13-acetate (TPA) for 24 hrs. […]

[2] = tested on: U1 cells; assay: Cellular viability of U1 cells treated with FST; format: cell-based
Protocol: The cellular viability was >100% for 10 μM FST compared to no treatment and 76.3% for 10 μM FST and PMA compared with PMA alone.

[3] = tested on: HIV-1; conditions: U1 cells; for inhibition of PMA-stimulated HIV-1 replication: RT assay
[4] = tested on: HIV-1 LTR; conditions: literature reports; cited from earlier work

Compound: CCCCCCCCCCCCCC(=O)O[C@@H]1[C@@H](C)[C@@]2(O)[C@@H](C=C(CO)C[C@]3(O)C(=O)C(C)=C[C@@H]23)[C@@H]2C(C)(C)[C@]12OC(C)=O [TPA, 12-O-tetradecanoyl phorbol-13-acetate]
- increase in CAT activity above baseline ([1]; 32 nM TPA, absence of ectopic PP2Ac, U937 cells, HIV-2 CAT reporter): 148 fold

Compound: C[C@@](O)(/C=C/[C@H]1CC=CC(=O)O1)[C@@H](C[C@@H](O)\C=C/C=C\C=C\CO)OP(=O)(O)O [fostreicin]
- cellular viability compared to no treatment ([2]; 10 μM FST): > 100%
- cellular viability compared with PMA alone ([2]; 10 μM FST and PMA): 76.3%
- effect of treatment on cellular viability ([2]; treatment with FST): minimally affected
- reversal of PMA stimulation of HIV-1 replication ([3]; 10 μM, PMA 32 nM): totally reversed PMA stimulation of HIV-1 replication
- inhibition of PMA-stimulated HIV-1 replication ([3]; PMA 32 nM): inhibit PMA-stimulated HIV-1 replication

Compound: C=C1[C@@H](O)[C@@H]2O[C@]3(CC[C@H](/C=C/[C@@H](C)[C@@H]4CC(C)=C[C@@]5(O[C@H](C[C@@](C)(O)C(=O)O)CC[C@H]5O)O4)O3)CC[C@H]2O[C@@H]1[C@@H](O)C[C@H](C)[C@H]1O[C@@]2(CCCCO2)CC[C@H]1C [okadaic acid]
- inhibition of PMA-stimulated HIV-1 replication ([3]; PMA 32 nM): inhibit PMA-stimulated HIV-1 replication
- concentration dependence of inhibition of replication ([3]; PMA 32 nM, from 50 nM to 200 nM): inhibited replication in a concentration dependent manner
- inhibition of HIV-1 replication in the absence of PMA ([3]; no PMA): no inhibition
- effect on synergy between PP2Ac and TPA in activating HIV-2 enhancer CAT reporter ([1]; 5 μg pCMV5 PP2Ac plus TPA, OKA 50-400 nM): significantly reduced in a dose dependent manner
- effect of OKA on CAT activity of TPA-treated cells ([1]; OKA 50-400 nM pretreatment 30 min prior to TPA, U937 cells): decrease in CAT activity
- maximal increase in CAT reporter activity ([1]; OKA alone for 18 hrs, maximal activity at 200 nM, U937 cells): 150 fold
- effect on the HIV-1 LTR [4]: activate the HIV-1 LTR

— patent US20020137704A1, “Methods of inhibiting host-cell mediated viral replication” (priority 2000, published 2002)
